Values of other authors, collected in patent US12527845B2, “Formulations” (Arecor Limited, priority 2016, dated 2026).

Conditions: 25° C.

| SMILES | log K with respect to zinc ion binding |
| --- | --- |
| NCCN [ethylenediamine] | 5.69 |
| N[C@@H](CCC(=O)N[C@@H](CS)C(=O)NCC(=O)O)C(=O)O [glutathione] | 7.98 |
| N[C@@H](Cc1c[nH]cn1)C(=O)O [histidine] | 6.51 |
| N[C@@H](CS)C(=O)O [cysteine] | 9.11 |
| NCCNCCNCCN [TETA, triethylenetetramine] | 11.95 |
| O=C(O)CN(CCN(CC(=O)O)CC(=O)O)CC(=O)O [EDTA, ethylenediaminetetraacetate] | 14.5 |
| O=C(O)CN(CCOCCOCCN(CC(=O)O)CC(=O)O)CC(=O)O [EGTA, ethyleneglycoltetraacetate] | 12.6 |
| O=P(O)(O)OP(=O)(O)O [pyrophosphate] | 8.71 |
| O=C(O)CC(O)(CC(=O)O)C(=O)O [citrate] | 4.93 |
| NCCNCCN [DETA, diethylenetriamine] | 8.88 |
| N[C@@H](CSSC[C@H](N)C(=O)O)C(=O)O [cystine] | 6.67 |
| N[C@@H](CCC(=O)O)C(=O)O [glutamate] | 4.62 |
